# From US20250360235A1, “RADI[…] AND METHOD FOR RADIOLABELLING” (Telix Innovations SA, priority 2024, published 2025)
# Experiment: Radiochemical purity by HPLC over time after radiolabelling
# Type: physicochemical
# Method: Table 1 to Table 5 show the results of various radiolabelling experiments on radiochemical purity and the chelation yield. The radiolabelling experiments in the tables are carried out as described in: • Example 1 for when the gallium-68 source is GE Liquid target generator and EZAG GalliaPharm generator; • Example 2 for when the gallium-68 source is IRE Galli Eo generator; • Example 3 for when the gallium-68 source is GE solid target generator;
# However, the experiments were carried out with the amount of ascorbic acid as indicated in the Tables 1 to 5, and the activity as indicated in the Tables 1 to 5. Radiochemical purities were measured at various times (T0, T1, T4, T6) after the radiolabelled experiments have been conducted.
# The kits of Example 1, Example 2 or Example 3, with amounts of ascorbic acid as set out in Table 7 were used in the experiments for the ascorbic acid bracketing matrix. Three strengths of [^68Ga]Ga-PSMA-11 will be tested, i.e. 50 mCi/ml, 7 mCi/ml and 1 mCi/ml. Radiochemical purity was determined at different time points (TO, T1, T4 or T6), as set out in Table 7.
compound,measurement,setting,value
"O=C([O-])CN(CCN(CC(=O)[O-])Cc1cc(CCC(=O)NCCCCCC(=O)NCCCC[C@H](NC(=O)N[C@@H](CCC(=O)O)C(=O)O)C(=O)O)ccc1[O-])Cc1cc(CCC(=O)O)ccc1[O-].[68Ga+3].[OH3+] [[^68Ga]PSMA-11, gallium-68 radiolabelled Glu-urea-Lys-HBED-CC (gozetotide or PSMA-11)]",Radiochemical Purity (HPLC) Ga-68 PSMA-11 (%),"20 mg ascorbic acid, 514-544 mCi, 48.3-51.9 mCi/mL, GE Solid Target, n=2, T6 (6 h)",C (C = conforms to specifications)
same,Radiochemical Purity (HPLC) Ga-68 PSMA-11 (%),"25 mg ascorbic acid, 19.5-20.0 mCi, 1.85-1.90 mCi/mL, EZAG GalliaPharm, average of 2, T0",100%
same,Radiochemical Purity (HPLC) Ga-68 PSMA-11 (%),"25 mg ascorbic acid, 19.5-20.0 mCi, 1.85-1.90 mCi/mL, EZAG GalliaPharm, average of 2, T1 (1 h)",100%
same,Radiochemical Purity (HPLC) Ga-68 PSMA-11 (%),"25 mg ascorbic acid, 19.5-20.0 mCi, 1.85-1.90 mCi/mL, EZAG GalliaPharm, n=2, T0",C (C = all results conform to specifications)
same,Radiochemical Purity (HPLC) Ga-68 PSMA-11 (%),"25 mg ascorbic acid, 19.5-20.0 mCi, 1.85-1.90 mCi/mL, EZAG GalliaPharm, n=2, T1 (1 h)",C (C = all results conform to specifications)
same,Radiochemical Purity (HPLC) Ga-68 PSMA-11 (%),"25 mg ascorbic acid, 23.3-24 mCi, 2.22-2.28 mCi/mL, IRE Galli Eo, average of 2, T0",100%
same,Radiochemical Purity (HPLC) Ga-68 PSMA-11 (%),"25 mg ascorbic acid, 23.3-24 mCi, 2.22-2.28 mCi/mL, IRE Galli Eo, average of 2, T4 (4 h)",100%
same,Radiochemical Purity (HPLC) Ga-68 PSMA-11 (%),"25 mg ascorbic acid, 23.3-24 mCi, 2.22-2.28 mCi/mL, IRE Galli Eo, n=2, T0",C (C = all results conform to specifications)
same,Radiochemical Purity (HPLC) Ga-68 PSMA-11 (%),"25 mg ascorbic acid, 23.3-24 mCi, 2.22-2.28 mCi/mL, IRE Galli Eo, n=2, T4 (4 h)",C (C = all results conform to specifications)
same,Radiochemical Purity (HPLC) Ga-68 PSMA-11 (%),"25 mg ascorbic acid, 46.0-46.1 mCi, 4.38-4.39 mCi/mL, EZAG GalliaPharm, average of 2, T0",100%
same,Radiochemical Purity (HPLC) Ga-68 PSMA-11 (%),"25 mg ascorbic acid, 46.0-46.1 mCi, 4.38-4.39 mCi/mL, EZAG GalliaPharm, average of 2, T4 (4 h)",100%
same,Radiochemical Purity (HPLC) Ga-68 PSMA-11 (%),"25 mg ascorbic acid, 46.0-46.1 mCi, 4.38-4.39 mCi/mL, EZAG GalliaPharm, n=2, T0",C (C = all results conform to specifications)
same,Radiochemical Purity (HPLC) Ga-68 PSMA-11 (%),"25 mg ascorbic acid, 46.0-46.1 mCi, 4.38-4.39 mCi/mL, EZAG GalliaPharm, n=2, T4 (4 h)",C (C = all results conform to specifications)
same,Radiochemical Purity (HPLC) Ga-68 PSMA-11 (%),"bracketing ~1 mCi/mL, 18.75 mg ascorbic acid, 8.9-11.5 mCi, 0.85-1.09 mCi/mL, IRE Galli Eo, average of 2, T0",100%
same,Radiochemical Purity (HPLC) Ga-68 PSMA-11 (%),"bracketing ~1 mCi/mL, 18.75 mg ascorbic acid, 8.9-11.5 mCi, 0.85-1.09 mCi/mL, IRE Galli Eo, average of 2, T1 (1 h)",100%
same,Radiochemical Purity (HPLC) Ga-68 PSMA-11 (%),"bracketing ~1 mCi/mL, 25 mg ascorbic acid, 8.8-12.7 mCi, 0.84-1.21 mCi/mL, 2 × IRE Galli Eo, average of 2, T0",99%
same,Radiochemical Purity (HPLC) Ga-68 PSMA-11 (%),"bracketing ~1 mCi/mL, 25 mg ascorbic acid, 8.8-12.7 mCi, 0.84-1.21 mCi/mL, 2 × IRE Galli Eo, average of 2, T1 (1 h)",100%
same,Radiochemical Purity (HPLC) Ga-68 PSMA-11 (%),"bracketing ~1 mCi/mL, 31.25 mg ascorbic acid, 15.2-26.9 mCi, 1.44-2.54 mCi/mL, EZAG GalliaPharm, average of 2, T0",100%
same,Radiochemical Purity (HPLC) Ga-68 PSMA-11 (%),"bracketing ~1 mCi/mL, 31.25 mg ascorbic acid, 15.2-26.9 mCi, 1.44-2.54 mCi/mL, EZAG GalliaPharm, average of 2, T1 (1 h)",100%
same,Radiochemical Purity (HPLC) Ga-68 PSMA-11 (%),"bracketing ~7 mCi/mL, 18.75 mg ascorbic acid, 51.0-58.0 mCi, 5.55-6.5 mCi/mL, IRE Galli Eo, average of 2, T0",100%
same,Radiochemical Purity (HPLC) Ga-68 PSMA-11 (%),"bracketing ~7 mCi/mL, 18.75 mg ascorbic acid, 51.0-58.0 mCi, 5.55-6.5 mCi/mL, IRE Galli Eo, average of 2, T4 (4 h)",100%
same,Radiochemical Purity (HPLC) Ga-68 PSMA-11 (%),"bracketing ~7 mCi/mL, 25 mg ascorbic acid, 51.6-74.4 mCi, 4.56-6.92 mCi/mL, 3 × GE Liquid Target, 3 × IRE Galli Eo, 3 × EZAG GalliaPharm, average of 9, T0",100%
same,Radiochemical Purity (HPLC) Ga-68 PSMA-11 (%),"bracketing ~7 mCi/mL, 25 mg ascorbic acid, 51.6-74.4 mCi, 4.56-6.92 mCi/mL, 3 × GE Liquid Target, 3 × IRE Galli Eo, 3 × EZAG GalliaPharm, average of 9, T4 (4 h)",100%
same,Radiochemical Purity (HPLC) Ga-68 PSMA-11 (%),"bracketing ~7 mCi/mL, 31.25 mg ascorbic acid, 61.5-62.0 mCi, 5.85-5.88 mCi/mL, EZAG GalliaPharm, average of 2, T0",100%
same,Radiochemical Purity (HPLC) Ga-68 PSMA-11 (%),"bracketing ~7 mCi/mL, 31.25 mg ascorbic acid, 61.5-62.0 mCi, 5.85-5.88 mCi/mL, EZAG GalliaPharm, average of 2, T4 (4 h)",100%
same,Radiochemical Purity (HPLC) Ga-68 PSMA-11 (%),"bracketing ~50 mCi/mL, 20 mg ascorbic acid, 514-544 mCi, 48.3-51.9 mCi/mL, GE Solid Target, average of 2, T0",100%
same,Radiochemical Purity (HPLC) Ga-68 PSMA-11 (%),"bracketing ~50 mCi/mL, 20 mg ascorbic acid, 514-544 mCi, 48.3-51.9 mCi/mL, GE Solid Target, average of 2, T6 (6 h)",100%
same,Radiochemical Purity (HPLC) Ga-68 PSMA-11 (%),"bracketing ~50 mCi/mL, 25 mg ascorbic acid, 537-551 mCi, 50.2-51.6 mCi/mL, GE Solid Target, average of 3, T0",100%
same,Radiochemical Purity (HPLC) Ga-68 PSMA-11 (%),"bracketing ~50 mCi/mL, 25 mg ascorbic acid, 537-551 mCi, 50.2-51.6 mCi/mL, GE Solid Target, average of 3, T6 (6 h)",100%
same,Radiochemical Purity (HPLC) Ga-68 PSMA-11 (%),"bracketing ~50 mCi/mL, 31.25 mg ascorbic acid, 500-544 mCi, 48.1-51.7 mCi/mL, GE Solid Target, average of 2, T0",100%
same,Radiochemical Purity (HPLC) Ga-68 PSMA-11 (%),"bracketing ~50 mCi/mL, 31.25 mg ascorbic acid, 500-544 mCi, 48.1-51.7 mCi/mL, GE Solid Target, average of 2, T6 (6 h)",100%
same,Radiochemical Purity (HPLC) Ga-68 PSMA-11 (%),"validation batches, 25 mg ascorbic acid, 51.6-62.7 mCi, 4.56-5.88 mCi/mL, IRE Galli Eo, average of 3, T0",100%
same,Radiochemical Purity (HPLC) Ga-68 PSMA-11 (%),"validation batches, 25 mg ascorbic acid, 51.6-62.7 mCi, 4.56-5.88 mCi/mL, IRE Galli Eo, average of 3, T4 (4 h)",100%
same,Radiochemical Purity (HPLC) Ga-68 PSMA-11 (%),"validation batches, 25 mg ascorbic acid, 51.6-62.7 mCi, 4.56-5.88 mCi/mL, IRE Galli Eo, n=3, T0",C (C = all results conform to specifications)
same,Radiochemical Purity (HPLC) Ga-68 PSMA-11 (%),"validation batches, 25 mg ascorbic acid, 51.6-62.7 mCi, 4.56-5.88 mCi/mL, IRE Galli Eo, n=3, T4 (4 h)",C (C = all results conform to specifications)
same,Radiochemical Purity (HPLC) Ga-68 PSMA-11 (%),"validation batches, 25 mg ascorbic acid, 53.3-74.4 mCi, 5.03-6.92 mCi/mL, GE Liquid target, average of 3, T0",99%
same,Radiochemical Purity (HPLC) Ga-68 PSMA-11 (%),"validation batches, 25 mg ascorbic acid, 53.3-74.4 mCi, 5.03-6.92 mCi/mL, GE Liquid target, average of 3, T4 (4 h)",100%
same,Radiochemical Purity (HPLC) Ga-68 PSMA-11 (%),"validation batches, 25 mg ascorbic acid, 53.3-74.4 mCi, 5.03-6.92 mCi/mL, GE Liquid target, n=3, T0",C (C = all results conform to specifications)
same,Radiochemical Purity (HPLC) Ga-68 PSMA-11 (%),"validation batches, 25 mg ascorbic acid, 53.3-74.4 mCi, 5.03-6.92 mCi/mL, GE Liquid target, n=3, T4 (4 h)",C (C = all results conform to specifications)
same,Radiochemical Purity (HPLC) Ga-68 PSMA-11 (%),"validation batches, 25 mg ascorbic acid, 65.0-66.4 mCi, 5.74-6.15 mCi/mL, EZAG GalliaPharm, average of 3, T0",100%
same,Radiochemical Purity (HPLC) Ga-68 PSMA-11 (%),"validation batches, 25 mg ascorbic acid, 65.0-66.4 mCi, 5.74-6.15 mCi/mL, EZAG GalliaPharm, average of 3, T4 (4 h)",100%
same,Radiochemical Purity (HPLC) Ga-68 PSMA-11 (%),"validation batches, 25 mg ascorbic acid, 65.0-66.4 mCi, 5.74-6.15 mCi/mL, EZAG GalliaPharm, n=3, T0",C (C = all results conform to specifications)
same,Radiochemical Purity (HPLC) Ga-68 PSMA-11 (%),"validation batches, 25 mg ascorbic acid, 65.0-66.4 mCi, 5.74-6.15 mCi/mL, EZAG GalliaPharm, n=3, T4 (4 h)",C (C = all results conform to specifications)
same,Radiochemical Purity (HPLC) Ga-68 PSMA-11,"validation batches, 25 mg ascorbic acid, 537-551 mCi, 50.2-51.6 mCi/mL, GE Solid Target, average of 3, T0",100%
same,Radiochemical Purity (HPLC) Ga-68 PSMA-11,"validation batches, 25 mg ascorbic acid, 537-551 mCi, 50.2-51.6 mCi/mL, GE Solid Target, average of 3, T6 (6 h)",100%
same,Radiochemical Purity (HPLC) Ga-68 PSMA-11,"validation batches, 25 mg ascorbic acid, 537-551 mCi, 50.2-51.6 mCi/mL, GE Solid Target, n=3, T0",C (C = all results conform to specifications)
same,Radiochemical Purity (HPLC) Ga-68 PSMA-11,"validation batches, 25 mg ascorbic acid, 537-551 mCi, 50.2-51.6 mCi/mL, GE Solid Target, n=3, T6 (6 h)",C (C = all results conform to specifications)
same,Radiochemical Purity (HPLC) Ga-68 PSMA-11,"validation batches, 25 mg ascorbic acid, 555-564 mCi, 51.1-52.7 mCi/mL, ARTMS Solid Target, average of 3, T0",99%
same,Radiochemical Purity (HPLC) Ga-68 PSMA-11,"validation batches, 25 mg ascorbic acid, 555-564 mCi, 51.1-52.7 mCi/mL, ARTMS Solid Target, average of 3, T6 (6 h)",100%
same,Radiochemical Purity (HPLC) Ga-68 PSMA-11,"validation batches, 25 mg ascorbic acid, 555-564 mCi, 51.1-52.7 mCi/mL, ARTMS Solid Target, n=3, T0",C (C = all results conform to specifications)
same,Radiochemical Purity (HPLC) Ga-68 PSMA-11,"validation batches, 25 mg ascorbic acid, 555-564 mCi, 51.1-52.7 mCi/mL, ARTMS Solid Target, n=3, T6 (6 h)",C (C = all results conform to specifications)
